The target in series [1] is Amyloid-beta precursor protein (Homo sapiens) (UniProt P05067). The experiment in a line: Inhibition of HFIP-pretreated amyloid beta (1 to 42) (unknown origin) aggregation at 10 uM after 36 to 48 hrs by thioflavin-T fluorescence assay relative to control. Conditions: time 36-48 hrs.
For the next series, the target named is Acetylcholinesterase (Electrophorus electricus, UniProt O42275). The experiment in a line: Inhibition of electric eel AChE using acetylthiocholine as substrate preincubated for 5 mins followed by substrate addition and measured after 5 mins by Ellman's method.
Series [2] has as its target T1, Beta-secretase 1 (Homo sapiens, UniProt P56817). Conditions: dose 50.0 µM, time 60.0 min.
For series [3], the target named is Cholinesterase (Equus caballus, UniProt P81908).
Sequence of Cholinesterase (Equus caballus, UniProt P81908) (P81908 whole entry): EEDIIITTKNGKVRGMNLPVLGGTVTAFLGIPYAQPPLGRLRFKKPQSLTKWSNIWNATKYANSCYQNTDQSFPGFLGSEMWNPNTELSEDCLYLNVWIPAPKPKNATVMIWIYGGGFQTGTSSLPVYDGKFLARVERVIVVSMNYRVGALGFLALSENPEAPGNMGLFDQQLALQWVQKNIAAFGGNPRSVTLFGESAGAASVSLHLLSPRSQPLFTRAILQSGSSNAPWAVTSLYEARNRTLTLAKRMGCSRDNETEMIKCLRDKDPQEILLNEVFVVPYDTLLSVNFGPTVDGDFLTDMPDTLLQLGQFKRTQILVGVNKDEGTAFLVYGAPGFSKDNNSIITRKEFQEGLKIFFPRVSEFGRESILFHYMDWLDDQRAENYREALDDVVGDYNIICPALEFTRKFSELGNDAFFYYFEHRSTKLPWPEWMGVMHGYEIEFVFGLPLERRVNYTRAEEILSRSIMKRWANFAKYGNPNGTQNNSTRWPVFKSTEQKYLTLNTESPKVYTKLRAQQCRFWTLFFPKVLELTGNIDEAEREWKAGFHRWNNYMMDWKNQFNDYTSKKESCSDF
Description: Inhibition of equine serum BuChE using butyrylthiocholine as substrate preincubated for 5 mins followed by substrate addition and measured after 5 mins by Ellman's method
Series [4] concerns the target T2, Cholinesterase (Homo sapiens, UniProt P06276).
Description: Inhibition of human BuchE using butyrylthiocholine as substrate preincubated for 5 mins followed by substrate addition and measured after 5 mins by Ellman's method
For series [5], the target named is Acetylcholinesterase (Electrophorus electricus) (UniProt O42275). The experiment in a line: Inhibition of electric eel AChE at 10 uM using acetylthiocholine as substrate preincubated for 5 mins followed by substrate addition and measured after 5 mins by Ellman's method relative to control. Conditions: time 10.0 min.
Sequence of Acetylcholinesterase (Electrophorus electricus) (O42275 24-633 limits assumed): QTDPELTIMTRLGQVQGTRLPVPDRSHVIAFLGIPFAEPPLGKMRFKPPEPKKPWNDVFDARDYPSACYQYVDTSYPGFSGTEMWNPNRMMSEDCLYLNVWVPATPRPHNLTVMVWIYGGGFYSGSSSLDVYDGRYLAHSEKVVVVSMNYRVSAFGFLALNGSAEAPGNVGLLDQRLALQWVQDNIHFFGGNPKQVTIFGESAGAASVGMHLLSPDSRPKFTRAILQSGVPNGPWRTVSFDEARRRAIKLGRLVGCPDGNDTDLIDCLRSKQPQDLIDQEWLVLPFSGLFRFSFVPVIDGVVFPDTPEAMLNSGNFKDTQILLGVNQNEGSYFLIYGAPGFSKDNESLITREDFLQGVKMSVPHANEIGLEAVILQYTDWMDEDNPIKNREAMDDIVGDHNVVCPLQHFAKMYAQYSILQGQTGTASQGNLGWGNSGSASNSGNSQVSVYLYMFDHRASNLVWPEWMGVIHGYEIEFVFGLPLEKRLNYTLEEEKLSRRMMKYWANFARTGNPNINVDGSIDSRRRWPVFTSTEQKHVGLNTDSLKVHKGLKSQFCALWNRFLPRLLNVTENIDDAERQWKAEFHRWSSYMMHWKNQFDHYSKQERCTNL
In series [6] the target is T2, Cholinesterase. The experiment in a line: Inhibition of human BuchE at 1 uM using butyrylthiocholine as substrate preincubated for 5 mins followed by substrate addition and measured after 5 mins by Ellman's method relative to control. Conditions: time 10.0 min.
The target of series [7] is Sodium- and chloride-dependent GABA transporter 1 (Mus musculus) (UniProt P31648). In words: Inhibition of mouse GAT1 expressed in HEK293 cell line assessed as reduction in [3H]GABA uptake at 100 uM incubated for 10 mins relative to control. It is filed as cell-based.
Series [8] addresses T3, GABA transporter 3 (Mus musculus) (UniProt P31649).
T3 sequence (whole entry): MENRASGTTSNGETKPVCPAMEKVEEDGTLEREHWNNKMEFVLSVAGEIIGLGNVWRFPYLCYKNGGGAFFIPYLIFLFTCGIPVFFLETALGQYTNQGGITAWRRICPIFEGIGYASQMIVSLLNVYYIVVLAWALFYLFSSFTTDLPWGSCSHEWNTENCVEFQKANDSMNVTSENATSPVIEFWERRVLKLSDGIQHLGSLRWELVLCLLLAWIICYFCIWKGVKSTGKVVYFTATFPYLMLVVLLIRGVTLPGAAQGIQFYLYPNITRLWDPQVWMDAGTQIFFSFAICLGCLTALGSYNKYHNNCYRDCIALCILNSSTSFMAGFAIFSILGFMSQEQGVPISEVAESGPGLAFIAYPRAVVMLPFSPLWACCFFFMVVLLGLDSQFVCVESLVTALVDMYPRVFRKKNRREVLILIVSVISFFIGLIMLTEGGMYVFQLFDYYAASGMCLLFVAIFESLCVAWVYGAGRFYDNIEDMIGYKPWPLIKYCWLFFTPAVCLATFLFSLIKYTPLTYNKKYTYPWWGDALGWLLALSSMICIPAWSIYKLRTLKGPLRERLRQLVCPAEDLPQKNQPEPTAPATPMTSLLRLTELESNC
In words: Inhibition of mouse GAT2 expressed in HEK293 cell line assessed as reduction in [3H]GABA uptake at 100 uM incubated for 10 mins relative to control. It is filed as cell-based.

In series [9] the target is T4, GABA transporter 4 (Mus musculus) (UniProt P31650).
T4 sequence (whole entry): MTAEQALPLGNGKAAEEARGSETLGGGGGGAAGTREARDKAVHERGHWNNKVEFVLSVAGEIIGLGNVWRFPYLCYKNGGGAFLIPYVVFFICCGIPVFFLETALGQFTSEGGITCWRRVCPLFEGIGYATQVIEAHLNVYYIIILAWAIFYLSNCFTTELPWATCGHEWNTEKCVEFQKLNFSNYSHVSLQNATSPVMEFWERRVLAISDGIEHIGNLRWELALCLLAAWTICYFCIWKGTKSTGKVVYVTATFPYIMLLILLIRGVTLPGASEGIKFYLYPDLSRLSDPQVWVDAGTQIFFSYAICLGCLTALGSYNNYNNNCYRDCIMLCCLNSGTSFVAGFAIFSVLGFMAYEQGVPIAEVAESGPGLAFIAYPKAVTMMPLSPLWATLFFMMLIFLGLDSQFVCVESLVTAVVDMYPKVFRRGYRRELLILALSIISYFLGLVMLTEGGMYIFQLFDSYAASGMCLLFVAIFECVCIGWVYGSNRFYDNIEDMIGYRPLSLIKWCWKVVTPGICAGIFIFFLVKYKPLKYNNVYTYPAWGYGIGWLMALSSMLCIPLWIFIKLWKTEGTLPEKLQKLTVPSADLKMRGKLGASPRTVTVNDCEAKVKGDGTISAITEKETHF
The experiment in a line: Inhibition of mouse GAT3 expressed in HEK293 cell line assessed as reduction in [3H]GABA uptake at 100 uM incubated for 10 mins relative to control. The format is cell-based.

The target in series [10] is T4, GABA transporter 4 (Mus musculus). In words: Inhibition of mouse GAT4 expressed in HEK293 cell line assessed as reduction in [3H]GABA uptake at 100 uM incubated for 10 mins relative to control. The format is cell-based.
For series [11], the target named is Sodium- and chloride-dependent GABA transporter 1 (Mus musculus) (UniProt P31648). The experiment in a line: Inhibition of NO711 binding to mouse GAT1 expressed in HEK cell membranes at 100 uM incubated for 40 mins in presence of NO711 by LC-ESI-MS/MS analysis relative to control. The note with it: Membrane.
The target in series [12] is Microtubule-associated protein tau (Homo sapiens) (UniProt P10636). In words: Inhibition of tau aggregation (unknown origin) at 10 uM after 72 hrs by thioflavin-T fluorometric assay relative to control.
A short description of series [13]: Neurotoxicity against mouse HT22 cells assessed as cell viability at 10 uM incubated for 24 hrs by MTT assay. It is filed as cell-based, HT-22. Conditions: for Activity: ht-22, 24 h, 10 µM.
A short description of series [14]: Neurotoxicity against mouse HT22 cells assessed as cell viability at 30 uM incubated for 24 hrs by MTT assay. The format is cell-based, HT-22. Conditions: for Activity: ht-22, 24 h, 30 µM.
Series [15] deals with T5, Sodium- and chloride-dependent GABA transporter 3 (Homo sapiens, UniProt P48066).
T5 sequence (P48066 whole entry): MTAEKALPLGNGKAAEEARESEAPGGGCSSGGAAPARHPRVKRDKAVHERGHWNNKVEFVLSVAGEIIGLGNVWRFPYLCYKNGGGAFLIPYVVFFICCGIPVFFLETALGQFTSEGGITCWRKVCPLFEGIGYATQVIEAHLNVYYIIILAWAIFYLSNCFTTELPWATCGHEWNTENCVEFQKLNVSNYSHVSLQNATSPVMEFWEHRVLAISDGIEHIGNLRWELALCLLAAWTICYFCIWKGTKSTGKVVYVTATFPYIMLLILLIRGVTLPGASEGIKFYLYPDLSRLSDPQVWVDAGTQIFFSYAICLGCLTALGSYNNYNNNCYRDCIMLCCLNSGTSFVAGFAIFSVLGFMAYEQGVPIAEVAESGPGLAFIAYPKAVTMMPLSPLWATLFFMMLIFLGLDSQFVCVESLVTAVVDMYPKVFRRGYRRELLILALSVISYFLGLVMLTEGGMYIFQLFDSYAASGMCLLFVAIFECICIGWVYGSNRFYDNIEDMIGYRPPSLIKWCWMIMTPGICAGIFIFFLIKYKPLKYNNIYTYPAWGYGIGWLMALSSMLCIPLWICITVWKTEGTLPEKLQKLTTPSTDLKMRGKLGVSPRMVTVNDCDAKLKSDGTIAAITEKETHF
In words: Inhibition of human GAT3 expressed in COS-7 cells assessed as reduction in [2H6]GABA uptake preincubated for 25 mins followed by [2H6]GABA addition and measured after 6 mins by LC-MS/MS analysis. The format is cell-based.

For series [16], the target named is Cholinesterase (Equus caballus) (UniProt P81908). In words: Noncompetitive inhibition of equine serum BuChE assessed as decrease in Vmax with constant Km using varying concentrations of BTC as substrate by Lineweaver-burk and Cornish-Bowden plot analysis.
Sequence of Cholinesterase (Equus caballus) (P81908 whole entry): as the sequence (P81908 whole entry) above
The target in series [17] is T6, Sodium- and chloride-dependent GABA transporter 1 (Mus musculus, UniProt P31648). The experiment in a line: Inhibition of mouse GAT1 expressed in HEK293 cell line assessed as reduction in [3H]GABA uptake incubated for 10 mins. It is filed as cell-based.
Series [18] can be described thus: Hepatotoxicity in human HepG2 cells at 50 to 100 uM incubated for 72 hrs by MTS assay. Conditions: hepg2, 72 h, dose 50-100 µM. The format is cell-based.
Series [19] is described as follows: Hepatotoxicity in human HepG2 cells at 1 uM incubated for 72 hrs by MTS assay. It is filed as cell-based. The note with it: hepg2, 72 h.
A short description of series [20]: Metabolic stability in human liver microsomes assessed as parent compound remaining after 120 mins in presence of NADPH regeneration system by UPLC/MS anlaysis. The format is ADME, Microsome. Conditions: read-out: Stabilty.
In another series the target is Cytochrome P450 3A4 (Homo sapiens, UniProt P08684). The experiment in a line: Inhibition of CYP3A4 (unknown origin) at 10 uM. The format is ADME.
Sequence of Cytochrome P450 3A4 (P08684 whole entry): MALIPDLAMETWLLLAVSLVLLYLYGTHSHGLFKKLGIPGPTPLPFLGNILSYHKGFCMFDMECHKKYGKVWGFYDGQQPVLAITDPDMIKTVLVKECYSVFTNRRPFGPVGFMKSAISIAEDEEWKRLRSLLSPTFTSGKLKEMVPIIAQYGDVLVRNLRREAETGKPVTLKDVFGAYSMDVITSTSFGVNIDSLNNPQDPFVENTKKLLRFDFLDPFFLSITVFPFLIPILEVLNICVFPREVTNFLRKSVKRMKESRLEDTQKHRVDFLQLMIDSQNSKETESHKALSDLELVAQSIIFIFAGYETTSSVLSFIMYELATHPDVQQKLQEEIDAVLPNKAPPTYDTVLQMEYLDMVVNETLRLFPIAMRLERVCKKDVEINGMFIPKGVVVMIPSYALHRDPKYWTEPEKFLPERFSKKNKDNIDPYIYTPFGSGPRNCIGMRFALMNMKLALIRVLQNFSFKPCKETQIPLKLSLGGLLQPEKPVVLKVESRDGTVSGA
A further series has as its target Cytochrome P450 2D6 (Homo sapiens, UniProt P10635). In words: Inhibition of CYP2D6 (unknown origin) at 10 uM. It is filed as ADME.
The target in series [21] is T1, Beta-secretase 1.
The target in series [22] is T6, Sodium- and chloride-dependent GABA transporter 1. In words: Inhibition of NO711 binding to mouse GAT1 expressed in HEK cell membranes incubated for 40 mins in presence of NO711 by LC-ESI-MS/MS analysis. Also on record: species or system Membrane.
In the next series the target is T7, GABA transporter 4 (Mus musculus, UniProt P31650).
T7 sequence (P31650 whole entry): T4 sequence (whole entry)
The experiment in a line: Inhibition of mouse GAT4 expressed in HEK293 cell line assessed as reduction in [3H]GABA uptake incubated for 10 mins. It is filed as cell-based.

Series [23] is described as follows: Hepatotoxicity in human HepG2 cells at 10 uM incubated for 72 hrs by MTS assay. The note with it: hepg2, 72 h. It is filed as cell-based.

Active and inactive are the calls of the source. The calls are words filed in the database; no cut-off is given here.

T1 sequence (P56817 whole entry): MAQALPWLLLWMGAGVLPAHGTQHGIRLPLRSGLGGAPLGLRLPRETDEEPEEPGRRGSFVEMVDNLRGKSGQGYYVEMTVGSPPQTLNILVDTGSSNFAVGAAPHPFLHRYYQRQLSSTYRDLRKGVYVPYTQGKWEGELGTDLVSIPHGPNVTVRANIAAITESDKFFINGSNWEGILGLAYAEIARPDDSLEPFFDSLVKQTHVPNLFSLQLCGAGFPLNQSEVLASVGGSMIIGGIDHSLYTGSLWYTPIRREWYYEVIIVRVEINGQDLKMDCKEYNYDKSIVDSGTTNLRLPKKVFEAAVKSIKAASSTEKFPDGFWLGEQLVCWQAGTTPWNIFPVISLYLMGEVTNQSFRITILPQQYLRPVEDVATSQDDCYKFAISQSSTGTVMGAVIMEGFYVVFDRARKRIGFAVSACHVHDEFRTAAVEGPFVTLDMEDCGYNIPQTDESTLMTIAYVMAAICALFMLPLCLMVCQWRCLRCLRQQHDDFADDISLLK
T2 sequence (P06276 whole entry): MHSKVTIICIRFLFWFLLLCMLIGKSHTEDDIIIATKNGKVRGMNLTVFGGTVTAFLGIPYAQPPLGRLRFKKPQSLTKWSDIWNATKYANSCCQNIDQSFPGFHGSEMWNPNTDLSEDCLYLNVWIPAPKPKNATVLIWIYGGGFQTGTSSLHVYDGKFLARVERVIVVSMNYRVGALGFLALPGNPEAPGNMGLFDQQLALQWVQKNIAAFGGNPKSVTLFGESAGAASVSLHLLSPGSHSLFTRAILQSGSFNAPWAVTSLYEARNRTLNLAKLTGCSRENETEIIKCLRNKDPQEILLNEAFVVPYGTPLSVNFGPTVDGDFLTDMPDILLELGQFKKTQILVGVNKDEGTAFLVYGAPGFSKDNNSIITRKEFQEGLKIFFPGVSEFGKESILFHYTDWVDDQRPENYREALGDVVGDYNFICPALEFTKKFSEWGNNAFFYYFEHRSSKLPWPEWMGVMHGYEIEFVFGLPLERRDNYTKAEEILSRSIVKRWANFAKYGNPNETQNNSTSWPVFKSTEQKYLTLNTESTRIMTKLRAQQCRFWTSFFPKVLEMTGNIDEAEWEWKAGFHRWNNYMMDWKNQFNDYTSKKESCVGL
Sequence of Amyloid-beta precursor protein (Homo sapiens) (P05067 whole entry): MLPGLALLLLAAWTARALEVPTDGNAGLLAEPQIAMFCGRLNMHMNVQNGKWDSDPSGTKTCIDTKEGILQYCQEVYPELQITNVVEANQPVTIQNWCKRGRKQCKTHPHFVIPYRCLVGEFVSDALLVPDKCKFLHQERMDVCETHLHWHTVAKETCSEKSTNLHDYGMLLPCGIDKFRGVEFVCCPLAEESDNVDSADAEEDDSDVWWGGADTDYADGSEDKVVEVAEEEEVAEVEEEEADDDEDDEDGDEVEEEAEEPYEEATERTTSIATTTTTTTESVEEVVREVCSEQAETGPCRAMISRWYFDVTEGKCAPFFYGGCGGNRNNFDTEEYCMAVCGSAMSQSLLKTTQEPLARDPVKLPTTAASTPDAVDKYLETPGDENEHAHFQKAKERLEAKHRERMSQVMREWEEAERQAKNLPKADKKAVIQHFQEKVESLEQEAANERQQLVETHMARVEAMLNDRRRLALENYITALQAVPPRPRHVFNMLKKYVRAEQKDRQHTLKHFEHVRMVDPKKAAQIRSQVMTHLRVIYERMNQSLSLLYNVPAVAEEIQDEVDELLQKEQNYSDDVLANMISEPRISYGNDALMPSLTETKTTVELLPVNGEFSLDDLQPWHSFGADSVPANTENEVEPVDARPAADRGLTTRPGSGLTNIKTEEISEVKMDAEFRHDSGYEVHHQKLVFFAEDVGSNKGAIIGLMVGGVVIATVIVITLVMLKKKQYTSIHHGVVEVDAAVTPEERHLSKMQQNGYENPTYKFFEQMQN

For `CC(C)c1cccc(CNC[C@@H](O)[C@H](Cc2ccccc2)NC(=O)C(c2ccccc2)c2ccccc2)c1`, the inhibition in series [1] is 20.5%; against Beta-secretase 1 [2], 66%. Also, the concentration for half-maximal inhibition (IC50) is 5.13 µM against Acetylcholinesterase, 0.5 µM against Cholinesterase [3] and 0.08 µM against Cholinesterase [4].
With `C[C@H](NC[C@@H](O)[C@H](Cc1ccccc1)NC(=O)CC(c1ccccc1)c1ccccc1)c1ccccc1`, the inhibition in series [1] was 20.5%; in series [5], less than 10%; on Cholinesterase [6], 36.4%; against Beta-secretase 1 [2], 74.1%; in [7], 59%; in series [8], 51%. Also, the inhibition in series [9] is 69%; in series [10], 55%; in series [11], 66%; in series [12] it was 73.1%. In series [13] (HT22 cells, read-out: Activity), the viability at 24 h, 10 µM came out at 100%. For the same molecule, the viability at 24 h, 30 µM in series [14] (HT22 cells, read-out: Activity) worked out at 50%. The molecule also displayed an IC50 on Cholinesterase [3] of 8.86 µM.
In the case of `COc1ccc(C(OCCN2CCC[C@H](C(=O)O)C2)(c2ccc(OC)cc2)c2ccc(OC)cc2C)cc1`, the IC50 in series [15] came to 3.16 µM.
Take `CC(C)(C)c1cccc(CNC[C@@H](O)[C@H](Cc2ccccc2)NC(=O)C(c2ccccc2)c2ccccc2)c1`: the inhibition in series [1] worked out at 20.5%; in series [9], 55%; in series [10] it was 55%; in series [11], 82%. In addition, the IC50 turned out to be 2.86 µM at Acetylcholinesterase; 11 µM in series [17]; 0.06 µM against Cholinesterase [3]; 0.02 µM against Cholinesterase [4]; 5.9 µM against Beta-secretase 1 [21]. For the same molecule, the inhibition entry in series [16] was “Active”. The Activity result is recorded as “Non-Toxic” in series [13], “Toxic” in series [14], “Toxic” in series [18] and “Non-Toxic” in [19]. Further, in [20], the remaining at 2 h came to 79.6%. Further, the “inhibition (INH)” value on Cytochrome P450 3A4 and against Cytochrome P450 2D6 was “Active” throughout.
Turning to `COc1ccc(C(/C=C/CN2CCC[C@H](C(=O)O)C2)(c2ccc(OC)cc2)c2ccc(OC)cc2)cc1`, the IC50 in series [15] was determined as 1.59 µM; in series [22] it was 46.8 µM.
On to `O[C@@H](CNCc1ccccc1)[C@H](Cc1ccccc1)NCCC(c1ccccc1)c1ccccc1`, for which the inhibition in [1] was 34.7%; in [5], less than 10%; against Beta-secretase 1 [2], 58%; in [12], 85.8%. The IC50 is 7.59 µM in series [17]; 5.5 µM on GABA transporter 4; 30.2 µM in series [22]; 0.65 µM at Cholinesterase [3]; 0.63 µM against Cholinesterase [4]. Besides, in series [13], the Activity entry is on record as “Toxic”.
`CC(C)(C)CNC[C@@H](O)[C@H](Cc1ccccc1)NC(=O)C(c1ccccc1)c1ccccc1`: the inhibition is 20.5% in [1]; less than 10% in series [5]; 40% on Beta-secretase 1 [2]; 54% in series [9]; 71% in [11]. In addition, in series [16], the inhibition result is “Active”. Further, the IC50 came out at 25.1 µM in series [17], 30.9 µM at GABA transporter 4, 0.1 µM against Cholinesterase [3] and 0.45 µM against Cholinesterase [4]. Besides, the Activity entry in series [13] is given as “Non-Toxic”; in series [14], “Toxic”; in series [18], “Toxic”; in [19] it was “Non-Toxic”; in series [23], “Non-Toxic”. Moreover, the remaining at 2 h in series [20] was 79.2%. Also, the “inhibition (INH)” value at Cytochrome P450 3A4 and against Cytochrome P450 2D6 was “Active” throughout.
